In US8697687B2, “Treating diseases mediated by blockade of the epithelial sodium channel with pyrazine-2-carboxamide derivatives” (Novartis AG, priority 2007, dated 2014):

Target: T1, epithelial sodium channel (ENaC) (Homo sapiens, UniProt P37088+P51168+P51170)
T1 construct: host or cells: primary Human Bronchial Epithelial cells (HBECs), air-liquid interface culture
T1 sequence (P37088 1-669): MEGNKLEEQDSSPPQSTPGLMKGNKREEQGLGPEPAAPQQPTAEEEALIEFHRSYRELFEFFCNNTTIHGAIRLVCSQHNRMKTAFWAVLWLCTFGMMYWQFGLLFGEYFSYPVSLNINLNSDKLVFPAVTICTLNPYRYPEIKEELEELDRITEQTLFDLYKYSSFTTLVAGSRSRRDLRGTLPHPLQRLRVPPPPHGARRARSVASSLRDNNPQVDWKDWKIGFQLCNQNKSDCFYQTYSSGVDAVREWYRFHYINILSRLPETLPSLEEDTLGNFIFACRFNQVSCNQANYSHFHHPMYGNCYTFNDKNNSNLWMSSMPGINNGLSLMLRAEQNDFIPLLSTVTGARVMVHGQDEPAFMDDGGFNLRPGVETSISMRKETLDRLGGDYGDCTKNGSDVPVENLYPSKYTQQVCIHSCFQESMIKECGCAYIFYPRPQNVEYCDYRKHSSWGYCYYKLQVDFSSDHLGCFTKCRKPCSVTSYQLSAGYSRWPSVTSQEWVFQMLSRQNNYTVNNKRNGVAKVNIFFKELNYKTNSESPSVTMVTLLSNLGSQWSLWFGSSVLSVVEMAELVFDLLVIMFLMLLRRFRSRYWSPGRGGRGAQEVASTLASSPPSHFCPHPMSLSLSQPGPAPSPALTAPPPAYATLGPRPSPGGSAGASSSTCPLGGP
T1 sequence (P51168 1-640): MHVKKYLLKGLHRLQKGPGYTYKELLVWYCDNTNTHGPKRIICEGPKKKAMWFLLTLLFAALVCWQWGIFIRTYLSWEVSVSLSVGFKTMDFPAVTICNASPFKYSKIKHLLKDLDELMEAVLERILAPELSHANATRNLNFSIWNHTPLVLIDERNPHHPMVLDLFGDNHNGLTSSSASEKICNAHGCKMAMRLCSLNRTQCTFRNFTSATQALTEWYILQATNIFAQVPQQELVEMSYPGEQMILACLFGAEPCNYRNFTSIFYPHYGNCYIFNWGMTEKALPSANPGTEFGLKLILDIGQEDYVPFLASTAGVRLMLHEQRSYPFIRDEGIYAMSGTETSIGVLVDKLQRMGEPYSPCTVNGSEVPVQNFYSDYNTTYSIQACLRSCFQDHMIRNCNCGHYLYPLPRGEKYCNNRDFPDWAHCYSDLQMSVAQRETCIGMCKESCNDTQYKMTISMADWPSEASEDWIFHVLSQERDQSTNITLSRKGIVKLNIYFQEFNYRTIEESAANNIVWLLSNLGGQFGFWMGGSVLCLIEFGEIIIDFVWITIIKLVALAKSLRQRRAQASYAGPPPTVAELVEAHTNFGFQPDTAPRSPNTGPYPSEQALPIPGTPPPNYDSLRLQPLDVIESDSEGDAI
T1 sequence (P51170 1-649): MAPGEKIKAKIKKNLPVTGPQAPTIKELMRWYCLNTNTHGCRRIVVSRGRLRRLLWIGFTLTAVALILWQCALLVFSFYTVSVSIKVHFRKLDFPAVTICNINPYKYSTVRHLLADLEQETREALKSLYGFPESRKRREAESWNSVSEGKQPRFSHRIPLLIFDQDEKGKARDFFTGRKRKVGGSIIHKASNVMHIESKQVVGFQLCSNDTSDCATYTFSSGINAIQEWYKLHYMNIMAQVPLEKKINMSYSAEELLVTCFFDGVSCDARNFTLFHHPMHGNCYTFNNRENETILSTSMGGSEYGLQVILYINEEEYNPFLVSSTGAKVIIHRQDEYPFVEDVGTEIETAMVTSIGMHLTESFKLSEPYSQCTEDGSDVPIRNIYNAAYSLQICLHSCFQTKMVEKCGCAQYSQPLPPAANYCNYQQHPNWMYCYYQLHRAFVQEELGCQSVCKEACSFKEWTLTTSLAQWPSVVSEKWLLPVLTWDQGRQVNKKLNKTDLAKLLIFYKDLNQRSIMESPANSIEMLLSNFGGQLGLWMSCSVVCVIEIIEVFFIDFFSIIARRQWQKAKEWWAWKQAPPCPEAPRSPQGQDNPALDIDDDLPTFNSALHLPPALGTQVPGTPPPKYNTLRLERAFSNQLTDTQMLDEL
Test: Short circuit current (ISC) measurements in Human Bronchial Epithelial cells, inhibition of amiloride-sensitive ISC
Assay type: cell-based
Conditions: inhibition of the amiloride-sensitive ISC; Human Bronchial Epithelial cells (HBECs) at air-liquid interface; compound added to apical chamber; read-out: IC50
Method: Compounds of formula (I) and their pharmaceutically acceptable salts, hereinafter referred to alternatively as “agents of the invention”, are useful as pharmaceuticals. In particular, the compounds have good ENaC blocker activity and may be tested in the following assays.
Human Bronchial Epithelial cells (HBECs) (Cambrex) were cultured under air-liquid interface conditions to provide a well differentiated mucociliary phenotype.
HBECs were cultured using a modification of the method described by Gray and colleagues (Gray et al., 1996). Cells were seeded in plastic T-162 flasks and were grown in bronchial epithelial cell growth medium (BEGM; Cambrex) supplemented with bovine pituitary extract (52 μg/mL), hydrocortisone (0.5 μg/mL), human recombinant epidermal growth factor (0.5 ng/mL), epinephrine (0.5 μg/mL), transferrin (10 μg/mL), insulin (5 μg/mL), retinoic acid (0.1 μg/mL), triiodothyronine ([…]), gentamycin (50 μg/mL) and amphotericin B (50 ng/mL). Medium was changed every 48 hours until cells were 90% confluent. Cells were then passaged and seeded (8.25×10^5 cells/insert) on polycarbonate Snapwell inserts (Costar) in differentiation media containing 50% DMEM in BEGM with the same supplements as above but without triiodothyronine and a final retinoic acid concentration of 50 nM (all-trans retinoic acid). Cells were maintained submerged for the first 7 days in culture, after which time they were exposed to an apical air interface for the remainder of the culture period. At this time, media was changed to DMEM:F12 media containing 2% v/v Ultroser G for the remainder of culture. Amphotericin B was removed from all media 3 feeds prior to use in the Using Chambers. Cells were used between days 7 and 21 after establishment of the apical-air interface. At all stages of culture, cells were maintained at 37° C. in 5% CO2 in an air incubator.
Short Circuit Current (ISC) Measurements
Snapwell inserts were mounted in Vertical Diffusion Chambers (Costar) and were bathed with continuously gassed Ringer solution (5% CO2 in O2; pH 7.4) maintained at 37° C. containing (in mM): 120 NaCl, 25 NaHCO3, 3.3 KH2PO4, 0.8 K2HPO4, 1.2 CaCl2, 1.2 MgCl2, and 10 glucose. The solution osmolarity was between 280 and 300 mOsmol/kg H2O for all physiological salt solutions used. Cells were voltage clamped to 0 mV (model EVC4000; WPI). RT was measured by applying a 1- or 2-mV pulse at 30-s intervals and calculating RT by Ohm's law. Data were recorded using a PowerLab workstation (ADInstruments).
Test compounds were prepared as a 10 mM stock solution in DMSO (95%). Serial 3-fold dilutions were freshly prepared in an appropriate vehicle (distilled H2O or Ringers solution). The initial concentration was added to the apical chamber as a 1000× concentrate in 5 μL, resulting in a final 1× concentration the 5 mL volume of the Ussing chamber. Subsequent additions of compound were added in a 3.3 μL volume of the 1000× serially diluted stock solution. At the completion of the concentration-response experiment, amiloride (10 μM) was added into the apical chamber to enable the total amiloride-sensitive current to be measured. An amiloride control IC50 was established at the start of each experiment.
Results are expressed as the mean % inhibition of the amiloride-sensitive ISC. Concentration-response curves were plotted and IC50 values generated using GraphPad Prism 3.02. Cell inserts were typically run in duplicate and the IC50 calculated on the mean % inhibition data.

Row | SMILES | IC50
1 | Nc1nc(N)c(C(=O)/N=C2\NCC3(CCN(S(=O)(=O)Cc4ccccc4)CC3)N2)nc1Cl [Example 232, 3,5-Diamino-6-chloro-pyrazine-2-carboxylic acid [8-phenylmethanesulfonyl-1,3,8-triaza-spiro[4.5]dec-(2E)-ylidene]-amide] | 54 nM
2 | COc1cc(OC)nc(COc2ccc(C(=O)N3CCC4(CC3)CN/C(=N\C(=O)c3nc(Cl)c(N)nc3N)N4)cc2)n1 [Example 61, 3,5-Diamino-6-chloro-pyrazine-2-carboxylic acid [8-[4-(4,6-dimethoxy-pyrimidin-2-ylmethoxy)-benzoyl]-1,3,8-triaza-spiro[4.5]dec-(2E)-ylidene]-amide] | 346 nM
3 | Nc1nc(N)c(C(=O)/N=C2\NCC3(CCN(C(=O)Cc4csc5ccccc45)CC3)N2)nc1Cl [Example 44, 3,5-Diamino-6-chloro-pyrazine-2-carboxylic acid [8-(2-Benzo[b]thiophen-3-yl-acetyl)-1,3,8-triaza-spiro[4.5]dec-(2E)-ylidene]-Amide] | 29.5 nM
4 | Nc1nc(N)c(C(=O)/N=C2\NC[C@H](CCCNC(=O)Cc3ccccc3)N2)nc1Cl [Example 34, 3,5-Diamino-6-chloro-pyrazine-2-carboxylic acid [(S)-4-(3-phenylacetylamino-propyl)-imidazolidin-(2E)-ylidene]-amide] | 95 nM
5 | Nc1nc(N)c(C(=O)/N=C2\NC[C@H](CCCCNS(=O)(=O)Cc3ccccc3)N2)nc1Cl [Example 35, 3,5-Diamino-6-chloro-pyrazine-2-carboxylic acid [(S)-4-(4-phenylmethanesulfonylamino-butyl)-imidazolidin-(2E)-ylidene]-amide] | 31 nM
6 | Nc1nc(N)c(C(=O)/N=C2\NCC3(CCN(C(=O)C4CC(=O)N(CCCn5cccc5)C4)CC3)N2)nc1Cl (stereo not drawn) [Example 45, 3,5-Diamino-6-chloro-pyrazine-2-carboxylic acid [8-[5-oxo-1-(3-pyrrol-1-yl-propyl)-pyrrolidine-3-carbonyl]-1,3,8-triaza-spiro[4.5]dec-(2E)-ylidene]-amide] | 42.6 nM
7 | Nc1nc(N)c(C(=O)/N=C2\NCC3(CCN(C(=O)CCc4ccc(OCc5ccncc5)cc4)CC3)N2)nc1Cl [Example 70, 3,5-Diamino-6-chloro-pyrazine-2-carboxylic acid [8-{3-[4-(pyridin-4-ylmethoxy)-phenyl]-propionyl}-1,3,8-triaza-spiro[4.5]dec-(2E)-ylidene]-amide] | 74 nM
8 | CC(c1ccccc1)N1CCC2(CC1)CN/C(=N\C(=O)c1nc(Cl)c(N)nc1N)N2 (stereo not drawn) [Example 246, 3,5-Diamino-6-chloro-pyrazine-2-carboxylic acid [8-(1-phenyl-ethyl)-1,3,8-triaza-spiro[4.5]dec-(2E)-ylidene]-amide] | 25 nM
9 | Nc1nc(N)c(C(=O)/N=C2\NCC3(CCN(C(=O)c4cocn4)CC3)N2)nc1Cl [Example 118, 3,5-Diamino-6-chloro-pyrazine-2-carboxylic acid [8-(oxazole-4-carbonyl)-1,3,8-triaza-spiro[4.5]dec-(2E)-ylidene]-amide] | 175 nM
10 | Nc1nc(N)c(C(=O)/N=C2\NCC3(CCN(C(=O)[C@H]4CC[C@H](C(=O)N5CCC6(CC5)CN/C(=N\C(=O)c5nc(Cl)c(N)nc5N)N6)CC4)CC3)N2)nc1Cl [Example 94] | 9 nM
11 | CC(C)(CCOCc1ccccc1)C[C@H]1CN/C(=N/C(=O)c2nc(Cl)c(N)nc2N)N1 [Example 26] | 11 nM
12 | Nc1nc(N)c(C(=O)/N=C2\NCC3(CCN(C(=O)NCc4ccccc4)CC3)N2)nc1Cl [Example 215, 2-[(E)-3,5-Diamino-6-chloro-pyrazine-2-carbonylimino]-1,3,8-triaza-spiro[4.5]decane-8-carboxylic acid benzylamide] | 36 nM
13 | Nc1nc(N)c(C(=O)N=C2NC3CCCCC3N2)nc1Cl (stereo not drawn) [Example 11, 3,5-Diamino-6-chloro-pyrazine-2-carboxylic acid (octahydro-benzoimidazol-2-ylidene)-amide] | 1690 nM
14 | Nc1nc(N)c(C(=O)/N=C2\NCC3(CCN(C(=O)NCCc4cccc(OCc5ccccc5)c4)CC3)N2)nc1Cl [Example 220, 2-[(E)-3,5-Diamino-6-chloro-pyrazine-2-carbonylimino]-1,3,8-triaza-spiro[4.5]decane-8-carboxylic acid [2-(3-benzyloxy-phenyl)-ethyl]-amide] | 8.5 nM
15 | CC(C)NC(=O)Nc1cc(C(=O)N2CCC3(CC2)CN/C(=N\C(=O)c2nc(Cl)c(N)nc2N)N3)ccn1 [Example 62, 3,5-Diamino-6-chloro-pyrazine-2-carboxylic acid [8-[2-(3-isopropyl-ureido)-pyridine-4-carbonyl]-1,3,8-triaza-spiro[4.5]dec-(2E)-ylidene]-amide] | 13 nM
